In patent US9315490B2, “2,5-substituted pyrimidines” (Grünenthal GmbH, priority 2014, dated 2016):

Target: T1, human PDE4B1 (Homo sapiens, UniProt Q07343)
T1 construct: host or cells: Sf9 cells
Assay: cAMP HTRF assay to determine the activity of hPDE4B1
Type: biochemical
Settings: inhibition of PDE4B at a test concentration of 1 μM
Procedure, shortened: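 Human recombinant PDE4B1 from Sf9 cells (4.8 U) in Tris-HCl, MgCl2, DTT, Tween 20 buffer at pH 7.8 with 40 nM cAMP (final), 30 min at room temperature. Reaction stopped with 1 mM IBMX; remaining cAMP detected by HTRF (665/620 nm ratio). IC50 from eight-concentration curves.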

T1 sequence (Q07343 whole entry): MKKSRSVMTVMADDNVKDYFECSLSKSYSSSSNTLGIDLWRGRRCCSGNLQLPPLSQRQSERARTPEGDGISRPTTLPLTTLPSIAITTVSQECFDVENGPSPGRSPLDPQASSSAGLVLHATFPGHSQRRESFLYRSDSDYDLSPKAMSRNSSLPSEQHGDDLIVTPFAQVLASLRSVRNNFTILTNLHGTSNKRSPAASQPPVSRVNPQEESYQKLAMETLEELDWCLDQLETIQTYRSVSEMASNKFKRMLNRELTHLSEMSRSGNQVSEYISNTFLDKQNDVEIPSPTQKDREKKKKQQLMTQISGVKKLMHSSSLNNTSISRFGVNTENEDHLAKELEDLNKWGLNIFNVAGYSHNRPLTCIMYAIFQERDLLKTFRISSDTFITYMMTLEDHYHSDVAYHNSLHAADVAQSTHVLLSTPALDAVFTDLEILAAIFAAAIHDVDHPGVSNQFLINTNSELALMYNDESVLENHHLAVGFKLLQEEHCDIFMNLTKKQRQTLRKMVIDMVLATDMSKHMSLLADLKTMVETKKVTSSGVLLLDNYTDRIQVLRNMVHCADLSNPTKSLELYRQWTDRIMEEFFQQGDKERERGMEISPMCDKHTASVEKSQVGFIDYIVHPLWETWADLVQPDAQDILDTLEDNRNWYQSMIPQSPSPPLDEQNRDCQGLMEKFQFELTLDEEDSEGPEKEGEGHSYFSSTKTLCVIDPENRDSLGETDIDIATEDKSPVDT

| SMILES | inhibition at 1 µM |
| --- | --- |
| Cc1cccc(-c2cnc(-n3cc(S(C)(=O)=O)c4ccc(C(=O)N5CC[C@@H](N)C5)cc43)nc2)c1 [Example 167, (R)-(3-Aminopyrrolidin-1-yl)(3-(methylsulfonyl)-1-(5-(m-tolyl)pyrimidin-2-yl)-1H-indol-6-yl)methanone] | 87% |
| CC(O)CN(C)C(=O)c1ccc2c([S+](C)[O-])cn(-c3ncc(-c4ccccc4F)cn3)c2c1 (stereo not shown) [Example 168, 1-(5-(2-Fluorophenyl)pyrimidin-2-yl)-N-(2-hydroxypropyl)-N-methyl-3-(methylsulfinyl)-1H-indole-6-carboxamide] | 43% |
| CN(C(=O)c1ccc2c([S+](C)[O-])cn(-c3ncc(-c4ccccc4F)cn3)c2c1)C1(CO)CC1 (stereo not shown) [Example 170, 1-(5-(2-Fluorophenyl)pyrimidin-2-yl)-N-(1-(hydroxymethyl)cyclopropyl)-N-methyl-3-(methylsulfinyl)-1H-indole-6-carboxamide] | 54% |
| CN(CC(C)(C)O)C(=O)c1ccc2c([S+](C)[O-])cn(-c3ncc(-c4ccccc4F)cn3)c2c1 (stereo not shown) [Example 171, 1-(5-(2-Fluorophenyl)pyrimidin-2-yl)-N-(2-hydroxy-2-methylpropyl)-N-methyl-3-(methylsulfinyl)-1H-indole-6-carboxamide] | 38% |
| CN(CC(=O)O)C(=O)c1ccc2c([S+](C)[O-])cn(-c3ncc(-c4ccccc4F)cn3)c2c1 (stereo not shown) [Example 173, 2-(1-(5-(2-Fluorophenyl)pyrimidin-2-yl)-N-methyl-3-(methylsulfinyl)-1H-indole-6-carboxamido)acetic acid] | 70% |
| CN(CC(N)=O)C(=O)c1ccc2c([S+](C)[O-])cn(-c3ncc(-c4ccccc4F)cn3)c2c1 (stereo not shown) [Example 174, N-(2-Amino-2-oxoethyl)-1-(5-(2-fluorophenyl)pyrimidin-2-yl)-N-methyl-3-(methylsulfinyl)-1H-indole-6-carboxamide] | 105% |
| COC(=O)CN(C)C(=O)c1ccc2c([S+](C)[O-])cn(-c3ncc(-c4ccccc4F)cn3)c2c1 (stereo not shown) [Example 177, Methyl 2-(1-(5-(2-fluorophenyl)pyrimidin-2-yl)-N-methyl-3-(methylsulfinyl)-1H-indole-6-carboxamido)acetate] | 39% |
| CS(=O)(=O)c1cn(-c2ncc(-c3ccccc3)cn2)c2cc(C(=O)N3CC[C@@H](N)C3)ccc12 [Example 228, (R)-(3-Aminopyrrolidin-1-yl)(3-(methylsulfonyl)-1-(5-phenylpyrimidin-2-yl)-1H-indol-6-yl)methanone] | 104% |
| CS(=O)(=O)c1cn(-c2ncc(-c3cc(C#N)ccc3F)cn2)c2cc(C(=O)N3CC[C@@H](N)C3)ccc12 [Example 229, (R)-3-(2-(6-(3-Aminopyrrolidine-1-carbonyl)-3-(methylsulfonyl)-1H-indol-1-yl)pyrimidin-5-yl)-4-fluorobenzonitrile] | 106% |
| COc1ccc(F)c(-c2cnc(-n3cc(S(C)(=O)=O)c4ccc(C(=O)N5CC[C@@H](N)C5)cc43)nc2)c1 [Example 230, (R)-(3-Aminopyrrolidin-1-yl)(1-(5-(2-fluoro-5-methoxyphenyl)pyrimidin-2-yl)-3-(methylsulfonyl)-1H-indol-6-yl)methanone] | 110% |
| Cc1ccc(F)c(-c2cnc(-n3cc(S(C)(=O)=O)c4ccc(C(=O)N5CC[C@@H](N)C5)cc43)nc2)c1 [Example 231, (R)-(3-Aminopyrrolidin-1-yl)(1-(5-(2-fluoro-5-methylphenyl)pyrimidin-2-yl)-3-(methylsulfonyl)-1H-indol-6-yl)methanone] | 121% |
| C[S+]([O-])c1cn(-c2ncc(-c3ccccc3)cn2)c2cc(C(=O)N3C[C@H]4C[C@@H]3CN4)ccc12 (stereo partly drawn) [Example 232, (1R,4R)-2,5-Diazabicyclo[2.2.1]heptan-2-yl(3-(methylsulfinyl)-1-(5-phenylpyrimidin-2-yl)-1H-indol-6-yl)methanone] | 57% |
| C[S+]([O-])c1cn(-c2ncc(-c3ccccc3)cn2)c2cc(C(=O)N3C[C@@H]4C[C@H]3CN4)ccc12 (stereo partly drawn) [Example 233, (1S,4S)-2,5-Diazabicyclo[2.2.1]heptan-2-yl(3-(methylsulfinyl)-1-(5-phenylpyrimidin-2-yl)-1H-indol-6-yl)methanone] | 103% |
| C[S+]([O-])c1cn(-c2ncc(-c3ccccc3)cn2)c2cc(C(=O)N3C[C@H]4C[C@@H]3CO4)ccc12 (stereo partly drawn) [Example 234, (1R,4R)-2-Oxa-5-azabicyclo[2.2.1]heptan-5-yl(3-(methylsulfinyl)-1-(5-phenylpyrimidin-2-yl)-1H-indol-6-yl)methanone] | 91% |
| CS(=O)(=O)c1cn(-c2ncc(-c3ccccc3)cn2)c2cc(C(=O)N3C[C@@H]4C[C@H]3CN4)ccc12 [Example 236, (1S,4S)-2,5-Diazabicyclo[2.2.1]heptan-2-yl(3-(methylsulfonyl)-1-(5-phenylpyrimidin-2-yl)-1H-indol-6-yl)methanone] | 85% |

Further lines, results first:

| inhibition at 1 µM | SMILES |
| --- | --- |
| 58% | Cc1cccc(-c2cnc(-n3cc(S(C)(=O)=O)c4ccc(C(=O)N5CCOCC5)cc43)nc2)c1 [Example 156, (3-(Methylsulfonyl)-1-(5-(m-tolyl)pyrimidin-2-yl)-1H-indol-6-yl)(morpholino) methanone] |
| 98% | COc1cccc(-c2cnc(-n3cc(S(C)(=O)=O)c4ccc(C(=O)N5CCOCC5)cc43)nc2)c1 [Example 159, (1-(5-(3-Methoxyphenyl)pyrimidin-2-yl)-3-(methylsulfonyl)-1H-indol-6-yl)(morpholino)methanone] |
| 95% | COc1ccc(F)c(-c2cnc(-n3cc(S(C)(=O)=O)c4ccc(C(=O)N5CCOCC5)cc43)nc2)c1 [Example 162, (1-(5-(2-Fluoro-5-methoxyphenyl)pyrimidin-2-yl)-3-(methylsulfonyl)-1H-indol-6-yl)(morpholino)methanone] |
| 114% | C[S+]([O-])c1cn(-c2ncc(-c3ccccc3F)cn2)c2cc(C(=O)N3CC4CC3CN4)ccc12 (stereo not shown) [Example 175, 2,5-Diazabicyclo[2.2.1]heptan-2-yl(1-(5-(2-fluorophenyl)pyrimidin-2-yl)-3-(methylsulfinyl)-1H-indol-6-yl)methanone] |
| 88% | C[C@H]1COCCN1C(=O)c1ccc2c([S+](C)[O-])cn(-c3ncc(-c4ccccc4F)cn3)c2c1 (stereo partly drawn) [Example 178, (1-(5-(2-Fluorophenyl)pyrimidin-2-yl)-3-(methylsulfinyl)-1H-indol-6-yl)((S)-3-methylmorpholino)methanone] |
| 90% | C[C@@H]1COCCN1C(=O)c1ccc2c([S+](C)[O-])cn(-c3ncc(-c4ccccc4F)cn3)c2c1 (stereo partly drawn) [Example 179, (1-(5-(2-Fluorophenyl)pyrimidin-2-yl)-3-(methylsulfinyl)-1H-indol-6-yl)((R)-3-methylmorpholino)methanone] |
| 99% | Cc1cccc(-c2cnc(-n3cc([S+](C)[O-])c4ccc(C(=O)N5CCOCC5)cc43)nc2)n1 (stereo not shown) [Example 180, (1-(5-(6-Methylpyridin-2-yl)pyrimidin-2-yl)-3-(methylsulfinyl)-1H-indol-6-yl)(morpholino)methanone] |
| 96% | C[S+]([O-])c1cn(-c2ncc(-c3cc(C#N)ccn3)cn2)c2cc(C(=O)N3CCOCC3)ccc12 (stereo not shown) [Example 181, 2-(2-(3-(Methylsulfinyl)-6-(morpholine-4-carbonyl)-1H-indol-1-yl)pyrimidin-5-yl)isonicotinonitrile] |
| 95% | C[S+]([O-])c1cn(-c2ncc(-c3cc(F)ccn3)cn2)c2cc(C(=O)N3CCOCC3)ccc12 (stereo not shown) [Example 182, (1-(5-(4-Fluoropyridin-2-yl)pyrimidin-2-yl)-3-(methylsulfinyl)-1H-indol-6-yl)(morpholino)methanone] |
| 60% | C[S+]([O-])c1cn(-c2ncc(-c3cccc(C#N)n3)cn2)c2cc(C(=O)N3CCOCC3)ccc12 (stereo not shown) [Example 183, 6-(2-(3-(Methylsulfinyl)-6-(morpholine-4-carbonyl)-1H-indol-1-yl)pyrimidin-5-yl)picolinonitrile] |
| 97% | C[S+]([O-])c1cn(-c2ncc(-c3cccc(F)n3)cn2)c2cc(C(=O)N3CCOCC3)ccc12 (stereo not shown) [Example 185, (1-(5-(6-Fluoropyridin-2-yl)pyrimidin-2-yl)-3-(methylsulfinyl)-1H-indol-6-yl)(morpholino)methanone] |
| 89% | C[S+]([O-])c1cn(-c2ncc(-c3ccccc3)cn2)c2cc(C(=O)N3CC[C@@H](N)C3)ccc12 (stereo partly drawn) [Example 223, ((R)-3-Aminopyrrolidin-1-yl)(3-(methylsulfinyl)-1-(5-phenylpyrimidin-2-yl)-1H-indol-6-yl)methanone] |
| 102% | Cc1cccc(-c2cnc(-n3cc([S+](C)[O-])c4ccc(C(=O)N5CC[C@@H](N)C5)cc43)nc2)c1 (stereo partly drawn) [Example 224, ((R)-3-Aminopyrrolidin-1-yl)(3-(methylsulfinyl)-1-(5-(m-tolyl)pyrimidin-2-yl)-1H-indol-6-yl)methanone] |
| 92% | C[S+]([O-])c1cn(-c2ncc(-c3cc(C#N)ccc3F)cn2)c2cc(C(=O)N3CC[C@@H](N)C3)ccc12 (stereo partly drawn) [Example 225, 3-(2-(6-((R)-3-Aminopyrrolidine-1-carbonyl)-3-(methylsulfinyl)-1H-indol-1-yl)pyrimidin-5-yl)-4-fluorobenzonitrile] |
| 99% | COc1ccc(F)c(-c2cnc(-n3cc([S+](C)[O-])c4ccc(C(=O)N5CC[C@@H](N)C5)cc43)nc2)c1 (stereo partly drawn) [Example 226, ((R)-3-Aminopyrrolidin-1-yl)(1-(5-(2-fluoro-5-methoxyphenyl)pyrimidin-2-yl)-3-(methylsulfinyl)-1H-indol-6-yl)methanone] |
| 108% | Cc1ccc(F)c(-c2cnc(-n3cc([S+](C)[O-])c4ccc(C(=O)N5CC[C@@H](N)C5)cc43)nc2)c1 (stereo partly drawn) [Example 227, ((R)-3-Aminopyrrolidin-1-yl)(1-(5-(2-fluoro-5-methylphenyl)pyrimidin-2-yl)-3-(methylsulfinyl)-1H-indol-6-yl)methanone] |
